Calls of active or inactive are those of the source. No rule for the calls is given here.
Tested on: CCRIS mutagenicity, Ames/micronucleus/aberration tests
Assay: CCRIS mutagenicity studies
[1] = Test System: AMES SALMONELLA TYPHIMURIUM, Strain/Indicator: TA98, Metabolic Activation: NONE, Method: PREINCUBATION
[2] = Test System: AMES SALMONELLA TYPHIMURIUM, Strain/Indicator: TA100, Metabolic Activation: NONE, Method: PREINCUBATION
[3] = Test System: AMES SALMONELLA TYPHIMURIUM, Strain/Indicator: TA98, Metabolic Activation: NONE, Method: STANDARD PLATE
[4] = Test System: AMES SALMONELLA TYPHIMURIUM, Strain/Indicator: TA100, Metabolic Activation: NONE, Method: STANDARD PLATE

COc1ccc2c3c(cccc13)C(=O)N(C)C2=O
mutagenic call [1]: inactive; negative
mutagenic call (Test System: AMES SALMONELLA TYPHIMURIUM, Strain/Indicator: TA98, Metabolic Activation: S-9, Method: PREINCUBATION): inactive; negative
mutagenic call [2]: inactive; negative
mutagenic call (Test System: AMES SALMONELLA TYPHIMURIUM, Strain/Indicator: TA100, Metabolic Activation: S-9, Method: PREINCUBATION): inactive; negative

C=CC(=O)OCCCC
mutagenic call (Test System: AMES SALMONELLA TYPHIMURIUM, Strain/Indicator: TA98, Metabolic Activation: HAMSTER, LIVER, S-9, AROCLOR 1254 (10%), Method: PREINCUBATION): inactive; negative
mutagenic call [1]: inactive; negative
mutagenic call [3]: inactive; negative
mutagenic call (Test System: AMES SALMONELLA TYPHIMURIUM, Strain/Indicator: TA98, Metabolic Activation: RAT, LIVER, S-9, AROCLOR 1254 (10%), Method: PREINCUBATION): inactive; negative
mutagenic call (Test System: AMES SALMONELLA TYPHIMURIUM, Strain/Indicator: TA98, Metabolic Activation: RAT, LIVER, S-9, AROCLOR 1254, Method: STANDARD PLATE): inactive; negative
mutagenic call (Test System: AMES SALMONELLA TYPHIMURIUM, Strain/Indicator: TA98, Metabolic Activation: RAT, LIVER, S-9, SODIUM PHENOBARBITAL, Method: STANDARD PLATE): inactive; negative
mutagenic call (Test System: AMES SALMONELLA TYPHIMURIUM, Strain/Indicator: TA100, Metabolic Activation: HAMSTER, LIVER, S-9, AROCLOR 1254 (10%), Method: PREINCUBATION): inactive; negative
mutagenic call [2]: inactive; negative
mutagenic call [4]: inactive; negative
mutagenic call (Test System: AMES SALMONELLA TYPHIMURIUM, Strain/Indicator: TA100, Metabolic Activation: RAT, LIVER, S-9, AROCLOR 1254 (10%), Method: PREINCUBATION): inactive; negative
mutagenic call (Test System: AMES SALMONELLA TYPHIMURIUM, Strain/Indicator: TA100, Metabolic Activation: RAT, LIVER, S-9, AROCLOR 1254, Method: PREINCUBATION): inactive; negative
mutagenic call (Test System: AMES SALMONELLA TYPHIMURIUM, Strain/Indicator: TA100, Metabolic Activation: RAT, LIVER, S-9, AROCLOR 1254, Method: STANDARD PLATE): inactive; negative
mutagenic call (Test System: AMES SALMONELLA TYPHIMURIUM, Strain/Indicator: TA100, Metabolic Activation: RAT, LIVER, S-9, SODIUM PHENOBARBITAL, Method: STANDARD PLATE): inactive; negative
mutagenic call (Test System: AMES SALMONELLA TYPHIMURIUM, Strain/Indicator: TA1535, Metabolic Activation: HAMSTER, LIVER, S-9, AROCLOR 1254 (10%), Method: PREINCUBATION): inactive; negative
mutagenic call (Test System: AMES SALMONELLA TYPHIMURIUM, Strain/Indicator: TA1535, Metabolic Activation: NONE, Method: PREINCUBATION): inactive; negative
mutagenic call (Test System: AMES SALMONELLA TYPHIMURIUM, Strain/Indicator: TA1535, Metabolic Activation: NONE, Method: STANDARD PLATE): inactive; negative
mutagenic call (Test System: AMES SALMONELLA TYPHIMURIUM, Strain/Indicator: TA1535, Metabolic Activation: RAT, LIVER, S-9, AROCLOR 1254 (10%), Method: PREINCUBATION): inactive; negative
mutagenic call (Test System: AMES SALMONELLA TYPHIMURIUM, Strain/Indicator: TA1535, Metabolic Activation: RAT, LIVER, S-9, AROCLOR 1254, Method: STANDARD PLATE): inactive; negative
mutagenic call (Test System: AMES SALMONELLA TYPHIMURIUM, Strain/Indicator: TA1535, Metabolic Activation: RAT, LIVER, S-9, SODIUM PHENOBARBITAL, Method: STANDARD PLATE): inactive; negative
mutagenic call (Test System: AMES SALMONELLA TYPHIMURIUM, Strain/Indicator: TA1537, Metabolic Activation: HAMSTER, LIVER, S-9, AROCLOR 1254 (10%), Method: PREINCUBATION): inactive; negative
mutagenic call (Test System: AMES SALMONELLA TYPHIMURIUM, Strain/Indicator: TA1537, Metabolic Activation: NONE, Method: PREINCUBATION): inactive; negative
mutagenic call (Test System: AMES SALMONELLA TYPHIMURIUM, Strain/Indicator: TA1537, Metabolic Activation: NONE, Method: STANDARD PLATE): inactive; negative
mutagenic call (Test System: AMES SALMONELLA TYPHIMURIUM, Strain/Indicator: TA1537, Metabolic Activation: RAT, LIVER, S-9, AROCLOR 1254 (10%), Method: PREINCUBATION): inactive; negative
mutagenic call (Test System: AMES SALMONELLA TYPHIMURIUM, Strain/Indicator: TA1537, Metabolic Activation: RAT, LIVER, S-9, AROCLOR 1254, Method: STANDARD PLATE): inactive; negative
mutagenic call (Test System: AMES SALMONELLA TYPHIMURIUM, Strain/Indicator: TA1537, Metabolic Activation: RAT, LIVER, S-9, SODIUM PHENOBARBITAL, Method: STANDARD PLATE): inactive; negative
mutagenic call (Test System: AMES SALMONELLA TYPHIMURIUM, Strain/Indicator: TA1538, Metabolic Activation: NONE, Method: STANDARD PLATE): inactive; negative
mutagenic call (Test System: AMES SALMONELLA TYPHIMURIUM, Strain/Indicator: TA1538, Metabolic Activation: RAT, LIVER, S-9, AROCLOR 1254, Method: STANDARD PLATE): inactive; negative
mutagenic call (Test System: AMES SALMONELLA TYPHIMURIUM, Strain/Indicator: TA1538, Metabolic Activation: RAT, LIVER, S-9, SODIUM PHENOBARBITAL, Method: STANDARD PLATE): inactive; negative
mutagenic call (Test System: MOUSE LYMPHOMA, Strain/Indicator: L5178Y (TK+/TK-), Metabolic Activation: NONE, Method: SUSPENSION/PLATE): active; positive. reevaluation of results: positive
mutagenic call (Test System: MOUSE LYMPHOMA, Strain/Indicator: L5178Y (TK+/TK-), Metabolic Activation: RAT, LIVER, S-9, AROCLOR 1254, Method: SUSPENSION/PLATE): inactive; negative. reevaluation of results: negative
mutagenic call (Test System: UDS RODENT CELLS, Strain/Indicator: SHE CELL-MEDIATED, Metabolic Activation: NONE, Method: LIQUID SCINTILLATION COUNTING (THYMIDINE INCORPORATION)): inactive; negative

Nc1ccc(Oc2ccccc2)cc1
mutagenic call [1]: inactive; negative
mutagenic call (Test System: AMES SALMONELLA TYPHIMURIUM, Strain/Indicator: TA98, Metabolic Activation: RAT, BLADDER, S-9, PCB, Method: FLUCTUATION TEST): active; positive
mutagenic call (Test System: AMES SALMONELLA TYPHIMURIUM, Strain/Indicator: TA98, Metabolic Activation: RAT, LIVER, S-9, PCB, Method: PREINCUBATION): active; positive
mutagenic call (Test System: AMES SALMONELLA TYPHIMURIUM, Strain/Indicator: TA100, Metabolic Activation: GUINEA PIG, LIVER, S-9, KANECLOR 500, Method: STANDARD PLATE): active; positive
mutagenic call [2]: inactive; negative
mutagenic call (Test System: AMES SALMONELLA TYPHIMURIUM, Strain/Indicator: TA100, Metabolic Activation: RAT, BLADDER, S-9, PCB, Method: FLUCTUATION TEST): active; positive
mutagenic call (Test System: AMES SALMONELLA TYPHIMURIUM, Strain/Indicator: TA100, Metabolic Activation: RAT, LIVER, S-9, PCB, Method: PREINCUBATION): active; positive

O=CC1=CCCC2CC12C=O (stereo unspecified)
mutagenic call [3]: active; positive
mutagenic call [4]: active; positive

Cc1cc([N+](=O)[O-])cc2ccccc12
mutagenic call [1]: active; positive

[Cl][Ce]([Cl])[Cl]
mutagenic call (Test System: E. COLI, Strain/Indicator: WP2 UVRA, Metabolic Activation: NONE, Method: SPOT TEST): inactive; negative
